Tested on: T1, CbDAE
T1 construct: codon-optimized gene in pET-28a(+) (NdeI/EcoRI), E. coli BL21(DE3), Ni-NTA purified, His tag; mutagenesis template given as pET22b-CbDAE
Experiment: epimerization, HPLC-RI, Michaelis-Menten fit
Type: biochemical, Christensenellaceae bacterium
Conditions: standard reaction conditions: 1 mM Co2+, 60 °C, 10 min; 5-300 mM substrate
From the text: epimerization, HPLC-RI, Michaelis-Menten fit on CbDAE

| Structure (SMILES) | Km |
| --- | --- |
| OCC1(O)OC[C@@H](O)[C@@H](O)[C@H]1O (stereo partly drawn) [D-allulose] | 44.9 ± 5.1 mM |
| OCC1(O)OC[C@@H](O)[C@H](O)[C@H]1O (stereo partly drawn) [D-sorbose] | 61.6 ± 4.8 mM |
| OCC1(O)OC[C@@H](O)[C@H](O)[C@@H]1O (stereo partly drawn) [D-tagatose] | 52.7 ± 6.2 mM |

From article PMC10927987, “Biochemical characterization, structure-guided mutagenesis, and application of a recombinant D-allulose 3-epimerase from Christensenellaceae bacterium for the biocatalytic production of D-allulose” (Frontiers in Bioengineering and Biotechnology, 2024)
